Data: patent US8653115B2, “Heterocyclic non-nucleoside compounds, their preparation, pharmaceutical composition and their use as antiviral agents” (Shanghai Institute of Materia Medica, Chinese Academy of …, priority 2006, dated 2014)

Assays:
[1] = Cytotoxicity to HepG2.2.15 cells, MTT method; type: cell-based; conditions: human, HepG2.2.15 cells (HBV-transgenic human hepatoma cell line), day 8, 50% death concentration
Procedure: (§1) Hepatitis B virus (HBV) transgenic human hepatoma carcinoma cell, HepG2.2.15 cell line, can secrete hepatitis B virus particles (containing antigen and DNA) into the supernatant when being incubated.
(§2) Under the influence of antiviral drugs, the contents of HBsAg, HBeAg and viral DNA secreted from cells into the supernatant were detected. Compared with the contents of control groups without drugs, the antiviral activity of the sample drugs can be observed. Meanwhile, the cytotoxic effect of the sample drugs can be detected. The value concentration of the sample drugs which caused 50% of the cells dead measured with MTT method was CC50. And the value concentration of the sample drugs which inhibited 50% of the secretion of HBsAg and HBeAg detected by specific ELISA kits and inhibited 50% of the viral DNA replication detected by fluorescent quantitation PCR method was IC50.
(§3) HepG2.2.15 cells were inoculated into a 96-well plate, and the sample drugs were added next day. The medium and the sample drugs with the same concentration were renewed periodically, and the supernatants were collected on the eighth day to be detected. MTT was added to the cells in the 96-well plate, and MTT dissolving solution was added after 4 hours and reacted overnight. OD570 was measured on ELISA the next day. The cytotoxicity of the sample drugs to HepG2.2.15 cells, the effect of the sample drugs on the growth of the cells, and the concentration of the sample drugs (CC50) resulting in 50% of the cells dead were estimated according to the OD values.

[2] = tested on: Hepatitis B virus (HBV) DNA; assay: HBV-DNA replication in HepG2.2.15 supernatant, fluorescent quantification PCR; type: cell-based; conditions: for IC50: Hepatitis B virus, 192 h, HepG2.2.15 supernatant, day 8, PCR, NA means no obvious biological activity or unable to be calculated
Procedure: as §1, §2, §3
A suitable amount of supernatant was added to the same volume of virus extract solution, and was boiled after mixed homogenously, then centrifuged at 10000 rpm under room temperature for 5 minutes, and a suitable amount of supernatant was collected for PCR amplification. Meanwhile five HBV-DNA standard samples were set to establish a standard curve. According to the obtained viral DNA replication value, the inhibition ratios of HBV-DNA replication of each sample drug at different concentrations were calculated, and then the half inhibition rates of the sample drugs were calculated to obtain IC50. For those samples that can not be calculated for IC50 values, they can be represented by ICx and list the corresponding concentration values.

[3] = tested on: Duck hepatitis B virus (DHBV); assay: Anti hepatitis B virus activity on animal: DHBV-DNA level in serum of infected ducks, dot blot hybridization; type: in vivo, Beijing duck; conditions: 50 mg/kg oral (intragastric) twice per day for 10 days; for inhibitory effect to DHBV-DNA in duck serum, group analysis (versus virus control group) / inhibitory effect to DHBV-DNA in duck serum, paired analysis (versus T0 of same group): T5, T10, P3
Procedure: The solutions of the sample drugs having required concentration (100 mg/mL) were prepared by using 0.3% sodium carboxymethyl cellulose. Batch number: 00701010
Strong positive serum of Duck hepatitis B virus DNA (DHBV-DNA), collected from Shanghai brown-duck, was store at −70[…].
1-day-old Beijing duck, purchased from Beijing QianJin breeding duck farm.
1-day-old Beijing duck was injected DHBV-DNA positive serum of Shanghai brown-duck via vena cruralis with 0.2 ml/each duck. Blood was taken on the seventh day after infected; serum was separated and stored at −70[…] to be detected.
DHBV infected ducklings were randomly grouped (six ducklings/each group) to carry out drug treatment experiment after 7 days. The administration groups (W28D, W28F, W28M, C37) were set 1 dose group—50 mg/kg respectively, and oral (intragastric) administered twice per day for 10 days (Bid×10). The drugs were replaced with normal saline in virus control group (DHBV). […] Blood was taken from the vena cruralis of the duck after 7 days later of infection, i.e. before drug administration (T0), the fifth day (T5) and the tenth day after drug administration (T10), and the third day after drug withdrawal (P3), then serum was separated and stored at −70[…] to be detected.
The above duck serum was taken and dotted on the membrane to measure the dynamic level of DHBV-DNA in the duck serum. According to the instruction of nick translation kit, dot blot hybridization of duck serum and was carried out using ^32 P labeled DHBV-DNA probe (purchased from Promega Co.). And the dots were shown on the membrane by radioautography. The OD values (the filter was 490 nm) of the dots on the membrane were measured by ELISA. DHBV-DNA density of the serum was calculated and the OD values of the hybridized dot were used as the values of DHBV-DNA level.
a) The mean values (X±SD) of DHBV-DNA OD values of serum at different time of the ducks in each group were calculated, and the DNA levels of serum at different time after drug administration (T5, T10) and the third day after drug withdrawal (P3) for the ducks in each group and were compared with the OD values before administration (T0) of the same group. The values of t1 and P1 were calculated by paired-t test. The significance of the difference was analyzed, and the inhibitory effect of the drugs on the viral infection was estimated.
b). The inhibition ratio (%) to DHBV-DNA of serum at different time after administration (T5, T10) and the third day after drug withdrawal (P3) of the ducks in each group were calculated and illuminated in the figure, and the dynamic state of the inhibition ratios of DHBV-DNA in duck serum in each group were compared.
c) The inhibitions % of DHBV-DNA at different time of the administration group were compared with that at the same time of the virus control group. […] The significance of the difference was analyzed, and the drug action was estimated.

SMILES	CC50 at 8 day [1]	IC50 [2]	further results
COc1ccc(-c2nc(C(=O)OC(C)C)c(CC(C)C)s2)cc1 [C37]	> 33 µM	30 nM	inhibitory effect to DHBV-DNA in duck serum, group analysis (versus virus control group) [3]: at each time point did not show inhibitory effect to DHBV-DNA; inhibitory effect to DHBV-DNA in duck serum, paired analysis (versus T0 of same group) [3]: at each time point did not show inhibitory effect to DHBV-DNA
CC(C)Cc1sc(-c2nccs2)nc1CO [C254]	> 33.3 µM	> 33300 nM	–
CC(=O)c1nc(-c2nccs2)sc1CC(C)C [C266]	> 33.3 µM	60 nM	–
CC(C)Cc1sc(-c2nccs2)nc1C(N)=O [C267]	> 100 µM	–	DNA replication ICX: IC89 ([2]; concentration at 89% inhibition, IC50 not calculable): IC89 = 33 μM
CC(C)Cc1sc(-c2nccs2)nc1C(C)O (stereo not drawn) [C268-2]	> 33.3 µM	600 nM	–
CCOC(=O)c1nc(-c2ccccn2)oc1CC(C)C [C274]	> 100 µM	67600 nM	–
CCC(=O)c1nc(-c2nccs2)sc1CC(C)C [C280-4]	> 33.3 µM	90 nM	–
CNC(=O)c1nc(-c2nccs2)sc1CC(C)C [C281]	> 100 µM	–	DNA replication ICX: IC94 ([2]; concentration at 94% inhibition, IC50 not calculable): IC94 = 33 μM
CCC(O)c1nc(-c2nccs2)sc1CC(C)C (stereo not drawn) [C282-2]	> 33.3 µM	800 nM	–
CCOC(=O)c1nc(-c2cccnc2)sc1CC(C)C [C290-2]	> 100 µM	–	–
CCOC(=O)c1nc(-c2ccncc2)sc1CC(C)C [C290-3]	> 100 µM	–	–
CCOC(=O)c1nc(-c2ccccn2)sc1CC(C)C [C290]	> 100 µM	140 nM	–
CC(C)Cc1sc(-c2nccs2)nc1C(=O)N(C)C [C295-3]	> 100 µM	–	DNA replication ICX: IC12 ([2]; concentration at 12% inhibition, IC50 not calculable): IC12 = 1.23 μM
CCOC(=O)c1nc(-c2ccc(C)cc2)sc1CC(C)C [C303-1]	> 33.3 µM	2900 nM	–
CCOC(=O)c1nc(-c2cccc(C)c2)sc1CC(C)C [C303-2]	> 33.3 µM	> 33300 nM	–
CCOC(=O)c1nc(-c2ccccc2C)sc1CC(C)C [C303-3]	> 33.3 µM	1480 nM	–
CCOC(=O)c1nc(-c2ccc(O)cc2)sc1CC(C)C [C305-4]	> 33.3 µM	–	–
CCOC(=O)c1nc(-c2cccc(O)n2)sc1CC(C)C [C306-2]	> 100 µM	140 nM	–
CCOC(=O)c1nc(-c2ncccc2O)sc1CC(C)C [C306-3]	5.67 µM	140 nM	–
CCOC(=O)c1nc(-c2ccc(F)cc2)sc1CC(C)C [C307-2]	> 33.3 µM	–	–
CCOC(=O)c1nc(-c2cccc(F)c2)sc1CC(C)C [C307-3]	> 33.3 µM	< 50 nM	–
CCOC(=O)c1nc(-c2ccccc2F)sc1CC(C)C [C307-4]	> 33.3 µM	140 nM	–
CC(C)Cc1sc(-c2nccs2)nc1C(=O)OC(C)C [C310-4]	> 100 µM	810 nM	inhibitory effect to DHBV-DNA in duck serum, group analysis (versus virus control group) [3]: T10 showed inhibitory effect to DHBV-DNA with statistical significance; inhibitory effect to DHBV-DNA in duck serum, paired analysis (versus T0 of same group) [3]: T10 showed inhibitory effect to DHBV-DNA with statistical significance

SMILES	CC50 at 8 day [1]	IC50 [2]	further results
CCOC(=O)c1nc(-c2ccc(OC)cc2)sc1CC(C)C [C319-3]	> 33.3 µM	90 nM	–
CCOC(=O)c1nc(-c2cccc(OC)c2)sc1CC(C)C [C319-4]	> 33.3 µM	110 nM	–
CCOC(=O)c1nc(-c2ccccc2OC)sc1CC(C)C [C319-5]	> 33.3 µM	40 nM	–
CCOC(=O)C=Cc1nc(-c2nccs2)sc1CC(C)C [C322-2]	> 33.3 µM	60 nM	–
CCOC(=O)c1nc(-c2ccc3ccccc3n2)[nH]c1CC(C)C [C323-2]	> 100 µM	–	–
CCOC(=O)c1nc(-c2cccc(Cl)c2)sc1CC(C)C [C323-3]	> 33.3 µM	–	–
CCOC(=O)c1nc(-c2ccc3ccccc3n2)oc1CC(C)C [C324-4]	45.4 µM	11900 nM	–
CCOC(=O)CCc1nc(-c2nccs2)sc1CC(C)C [C324-5]	> 33.3 µM	3000 nM	–
CC(C)Cc1sc(-c2nccs2)nc1C(=O)OC(C)(C)C [C324-6]	> 33.3 µM	3700 nM	–
CCOC(=O)c1nc(-c2ccc([N+](=O)[O-])cc2)sc1CC(C)C [C334-2]	> 33.3 µM	1060 nM	–
CCOC(=O)c1nc(-c2cccc([N+](=O)[O-])c2)sc1CC(C)C [C334-3]	> 33.3 µM	1200 nM	–
CCOC(=O)c1nc(-c2ccccc2[N+](=O)[O-])sc1CC(C)C [C334-4]	> 33.3 µM	1240 nM	–
CC(C)Cc1sc(-c2nccs2)nc1C(=O)Nc1ccccc1 [C343]	50 µM	–	DNA replication ICX: IC19 ([2]; concentration at 19% inhibition, IC50 not calculable): IC19 = 1.23 μM
CCOC(=O)c1nc(-c2ncc(-c3ccccc3)s2)sc1CC(C)C [C358]	> 33.3 µM	–	DNA replication ICX: IC36 ([2]; concentration at 36% inhibition, IC50 not calculable): IC36 = 1.23 μM
CCOC(=O)c1nc(-c2cccc([N+](=O)[O-])c2OC)sc1CC(C)C [C364-1]	19.2 µM	1100 nM	–
CCOC(=O)c1nc(-c2ccc([N+](=O)[O-])c(OC)c2)sc1CC(C)C [C364-2]	> 33.3 µM	–	–
CCOC(=O)c1nc(-c2ncc(Br)s2)sc1CC(C)C [C375]	> 33.3 µM	> 33300 nM	–
CCOC(=O)c1nc(-c2ccc(NC(=O)OC(C)(C)C)cc2)sc1CC(C)C [C404]	> 33.3 µM	–	–
CC(C)Cc1sc(-c2nccs2)nc1C(=O)NCc1ccc(F)cc1 [W28F]	43 µM	780 nM	DHBV-DNA rebound 3 days after drug withdrawal (P3) ([3]; then P3): rebounded, it did not reach the original level; inhibitory effect to DHBV-DNA in duck serum, group analysis (versus virus control group) [3]: T5 and T10 showed inhibitory effect to DHBV-DNA with statistical significance; inhibitory effect to DHBV-DNA in duck serum, paired analysis (versus T0 of same group) [3]: T5 and T10 showed inhibitory effect to DHBV-DNA with statistical significance
Cc1cnc(-c2nc(C(=O)OC(C)C)c(CC(C)C)s2)s1 [W28M]	> 20 µM	< 80 nM	inhibitory effect to DHBV-DNA in duck serum, group analysis (versus virus control group) [3]: did not show any effect with statistical significance; inhibitory effect to DHBV-DNA in duck serum, paired analysis (versus T0 of same group) [3]: T10 and P3 showed inhibitory effect to DHBV-DNA with statistical significance
COC(=O)c1nc(-c2nccs2)sc1CC(C)C [W28]	> 333 µM	2400 nM	–
CCCCc1sc(-c2nccs2)nc1C(=O)O [Wang268]	257 µM	–	DNA replication ICX: IC53 ([2]; concentration at 53% inhibition, IC50 not calculable): IC53 = 125 μM
O=C(O)c1nc(-c2nccs2)sc1Cc1ccccc1 [Wang302]	192 µM	63100 nM	–
